# Patent US8946219B2, “Combination therapy with a compound acting as a platelet ADP receptor inhibitor” (Portola Pharmaceuticals, Inc., priority 2007, dated 2015)
# How the values were obtained:
# [1] = test system: thrombosis on mouse mesenteric arteries; test: Mouse mesenteric artery thrombosis model, 5% FeCl3 (Example 13, present tense); assay type: in vivo, C57B16J mice; details: for antithrombotic activity in the intravital microscopy thrombosis model in mice: other factor Xa inhibitors, expected
# Experimental: Thrombosis on mouse mesenteric arteries (shear rate 1000-1300 s^−1) is performed and recorded as previously described with minor modifications, as described in Andre, P. et al., Anticoagulants (thrombin inhibitors) and aspirin synergize with P2Y12 receptor antagonism in thrombosis. Circulation, 2003, 108(21):2697-703. Platelets are labeled in situ using rhodamine 6G (0.2 mg/mL) administered through the tail vein 10 mins before visualization of the arteries. Vessel-wall injury is triggered by a 1×1-mm filter paper saturated with a 5% FeCl3 solution. After 5 minutes, the filter paper is removed and mesenteric arteries rinsed with warmed saline (37° C.). Platelet vessel-wall interactions are recorded for 40 additional mins or until full occlusion occurs and persists for more than 40 seconds. C57B16J mice are orally gavaged with vehicle control, Compound A (7.5, 20, 60 mg/kg) or betrixaban (4, 40, 400 mg/kg) two hours prior to vascular injury. Thrombosis is analyzed in real time using Simple PCI software, as described in Andre, P. et al., P2Y12 regulates platelet adhesion/activation, thrombus growth, and thrombus stability in injured arteries. J Clin Invest, 2003, 112(3):398-406. The fluorescence intensity is recorded at a rate of 2 Hz for 40 minutes and plotted over time. Time to occlusion (cessation of blood flow) is analyzed.
# [2] = test system: platelet thrombus formation on collagen-coated capillary (type I collagen); test: Perfusion assay, non-anticoagulated whole blood, type I collagen, 1000 s^−1 (Example 6); assay type: cell-based, human; details: Compound A alone at 10 μM
# Experimental: After perfusion the size of the platelet thrombus was measured by fluorescence.
# [3] = test system: thrombosis on mouse mesenteric arteries; test: Mouse mesenteric artery thrombosis model, intravital microscopy, 10% FeCl3 (Example 14); assay type: in vivo, C57B16J mice
# Experimental: Thrombosis on mouse mesenteric arteries (shear rate 1000-1300 s^−1) was performed and recorded as previously described with minor modifications. (Andre, P., et al., Anticoagulants (thrombin inhibitors) and aspirin synergize with P2Y12 receptor antagonism in thrombosis. Circulation, 2003. 108(21): p. 2697-703.) Platelets were labeled in situ using rhodamine 6G (0.2 mg/mL) administered through the tail vein 10 min before visualization of the arteries. Vessel-wall injury was triggered by a 1×1-mm filter paper saturated with a 10% FeCl3 solution. After 5 minutes, the filter paper was removed and mesenteric arteries rinsed with warmed saline (37° C.). Platelet vessel-wall interactions were recorded for 40 additional min or until full occlusion occurred and persisted for more than 40 seconds. C57B16J mice were orally gavaged with vehicle control, compound A (0.83, 2.5, 7.5, 20, 60 mg/kg) or betrixaban (2, 4, 10 mg/kg) two hours prior to vascular injury. Thrombosis was analyzed in real time using Simple PCI software. (Andre, P., et al., P2Y12 regulates platelet adhesion/activation, thrombus growth, and thrombus stability in injured arteries. J Clin Invest, 2003. 112(3): p. 398-406.) The fluorescence intensity was recorded at a rate of 2 Hz for 40 minutes and plotted over time. Time to occlusion (cessation of blood flow) is analyzed.
# Plasma concentrations of Compound A and betrixaban were determined on blood draw collected 2 min post-occlusion or 42 min after start of vascular injury.
# [4] = test system: whole human blood perfused over type III collagen (thrombus formation); test: Real time perfusion chamber thrombosis assay (Example 3); assay type: cell-based; details: read-out: inhibition of thrombosis
# Source text: The real time perfusion chamber assay couples the features of animal thrombosis models that use intravital microscopy to those of perfusion chamber technology in order to produce an assay suited to monitoring drug activity in clinical trials. This assay perfuses whole blood through capillaries at arterial rates of shear, exposing the blood to thrombogenic type III collagen. Platelets are labeled with a fluorescent dye (rhodamine 6 G) prior to perfusion such that analysis of the thrombus deposition can be performed by measurement of fluorescence intensity inside the perfusion chamber. Quantification is performed by analysis of the thrombus height (fluorescence intensity (number of pixels)/total area (μm^2)).
# [5] = test system: ADP induced platelet aggregation in human platelet rich plasma; test: ADP induced platelet aggregation; assay type: cell-based
# [6] = test system: thrombin generation in platelet rich plasma; test: Platelet-initiated thrombin generation assay (Example 5); assay type: cell-based, human
# Experimental: Whole blood from healthy volunteer donors was collected by venipuncture and drawn into 3.2% trisodium citrate (Vacutainer, Becton Dickinson) for anticoagulation. Platelet rich plasma was prepared by centrifugation and the platelet count was adjusted to 150,000/μL. In a 96 well plate, platelets were activated by addition of convulxin (200 ng/mL) and incubation at 37° C. for 3 mins. Subsequent to platelet activation, thrombin generation was initiated by addition of 23 pM tissue factor (Innovin, Dade Behring) and 15 mM calcium. Thrombin activity was monitored by cleavage of the specific fluorogenic substrate (Z-gly-gly-arg-AMC, Bachem) in a fluorescence plate reader.
# [7] = test system: thrombus formation under arterial shear conditions; test: Perfusion assay, blood collected in bivalirudin, type III collagen, 1600 s^−1 (Example 8); assay type: cell-based; details: bivalirudin alone, 12 μg/mL
# Experimental: As an example of additive antithrombotic benefit achieved when Compound A was combined with a direct thrombin inhibitor, such as bivalirudin, in the following assay, blood was collected in 12 μg/mL bivalirudin (standard therapeutic concentration), incubated with various concentrations of Compound A (0.1, 1 or 10 μM) for 20 mins in the presence of rhodamine 6G (which fluorescently labels platelets), followed by perfusion through a glass capillary coated with collagen (type III) at a fixed shear rate (1600 s^−1). […] FIG. 7 illustrates the combined antithrombotic benefit achieved by the combination of Compound A and bivalirudin.
# [8] = betrixaban 10 mg/kg, oral gavage
compound,measurement,setting,value
"COc1ccc(-n2nc(C(N)=O)c3c2C(=O)N(c2ccc(N4CCCCC4=O)cc2)CC3)cc1 [apixaban, 1-(4-methoxyphenyl)-7-oxo-6-(4-(2-oxopiperidin-1-yl)phenyl)-3a,4,5,6,7,7a-hexahydro-1H-pyrazolo[3,4-c]pyridine-3-carboxamide]",antithrombotic activity in the intravital microscopy thrombosis model in mice,[1],significant antithrombotic activity
CNc1cc2[nH]c(=O)n(-c3ccc(NC(=O)NS(=O)(=O)c4ccc(Cl)s4)cc3)c(=O)c2cc1F [Compound A],platelet thrombus size,[2],no significant effect
same,plasma concentration that did not prevent occlusion,"[3]; PK/PD, FIG. 13",below 1 μg/mL
same,plasma concentrations of non-effective doses,"[3]; PK/PD, FIG. 13",below 200 ng/mL
same,plasma levels that prevented vascular occlusion,"[3]; PK/PD, FIG. 13",> 1 µg/mL
same,inhibition at 1.1 µM,[4],23%
same,concentration capable of maximal inhibition of platelet aggregation,[5],10 µM
same,IC50,"[5]; Platelet, platelets derived from human donors, n=19, read-out: half maximal inhibition of ADP induced platelet aggregation",4.7 ± 5.1 µM
"COc1ccc(NC(=O)c2ccc(C(=N)N(C)C)cc2)c(C(=O)Nc2ccc(Cl)cn2)c1 [betrixaban, [2-({4-[(dimethylamino)iminomethyl]phenyl}carbonylamino)-5-methoxyphenyl]-N-(5-chloro(2-pyridyl))carboxamide]",time for appearance of first thrombus,[3]; [8],significantly delayed
same,time to occlusion,[3]; [8],significantly delayed
same,effect in the thrombosis model,"[3]; betrixaban 2 and 4 mg/kg, oral gavage",non-effective
same,concentration adequate for equivalent inhibition of thrombin generation as a therapeutic anticoagulant (Pentasaccharide fondaparinux),[6],31.25 nM
same,non-effective doses,[1]; betrixaban,below 100 ng/mL
bivalirudin,inhibition of the thrombotic process,[7],did not significantly inhibit the thrombotic process
"O=C(NC[C@H]1CN(c2ccc(N3CCOCC3=O)cc2)C(=O)O1)c1ccc(Cl)s1 [rivaroxaban, (5S)-5-chloro-N-((2-oxo-3-(4-(3-oxomorpholino)phenyl)oxazolidin-5-yl)methyl)thiophene-2-carboxamide]",antithrombotic activity in the intravital microscopy thrombosis model in mice,[1],significant antithrombotic activity
